# Laboratory results as given in patent US6770740B1, “Crosslinked DNA condesate compositions and gene delivery methods” (The Regents of the University of Michigan, priority 1999, dated 2004).
# Where no end group is shown, it is not given here. The star is where a group is joined. Carboxymethyl = O=C(O)C*
# Experiments:
# Assay type in all cases: cell-based
# HepG2 cells [1] = assay: Cell binding of 125I-DNA condensates, Example 1; conditions: 5 h transfection, 10 μg 125I-DNA condensates
# Experimental: Iodinated plasmid DNA was prepared with specific activity of 300 nCi per μg of DNA as described previously (Teribesi et al., 1998). Prior to forming DNA condensates, the specific activity of the ^125I DNA was adjusted to 4.5 nCi per μg of DNA by combining with unlabeled plasmid. DNA condensates were prepared using AlkCWK18, PEG-SS-CWK18 or PEG-VS-CWK18 as described above. Peptide ^125I-DNA condensates (10 μg) were used to transfer HepG2 cells for 5 h according to the procedure described above. The radioactive media was removed, cells were washed with phosphate buffered saline, harvested with lysis buffer, and the cell-associated radioactivity was quantified by gamma counting.
# HepG2 cells [2] = assay: Luciferase reporter gene expression in HepG2 cells, Example 5
# Experimental: HepG2 cells (1.5×10^5) were plated on 6×35 mm wells and grown to 40-70% confluency in MEM supplemented with 10% FBS, penicillin and streptomycin (10,000 U/ml), sodium pyruvate (100 mM), and L-glutamine (200 mM). Transfections were performed in MEM (2 ml per 35 mm well) with 2% FBS and 80 μM chloroquine. Peptide DNA condensates (10 μg of DNA in 0.2 ml HBM) were added dropwise to triplicate wells. After a 5 h incubation at 37° C., the media was replaced with MEM supplemented with 10% FBS. After 24 h, cells were washed twice with ice-cold phosphate buffered saline (calcium and magnesium free) and then treated with 0.5 ml of ice-cold lysis buffer (25 mM Tris chloride pH 7.8, 1 mM EDTA, 8 mM magnesium chloride, 1% Triton X-100, 1 mM DTT) for 10 min. The cell lysate was scraped, transferred to 1.5 ml microcentrifuge tubes, and centrifuged for 7 min at 13,000 g at 4° C. to pellet debris.
# Lysis buffer (300 μl), sodium-ATP (4 μl of a 180 mM solution, pH 7, 4° C.) and cell lysate (100 μl, 4° C.) were combined in a test tube, briefly mixed and immediately placed in the luminometer. Luciferase relative light units (RLU) were recorded on a Lumat™ LB 9501 (Berthold systems, Germany) with 10 sec integration after automatic injection of 100 μl of 0.5 mM D-luciferin (prepared fresh in lysis buffer without DTT). The RLU were converted in fmol using a standard curve generated by adding a known amount of luciferase (0.01 to 100 fmols with specific activity of 2.5 nU/fmol) to 35 mm wells containing 40-70% confluent HepG2 cells. The cells were processed as described above resulting in a standard curve with an average slope of 7.8×10^6 RLU per fmol of enzyme. Protein concentrations were measured by Bradford assay using bovine serum albumin as a standard (Bradford, 1976). The amount of luciferase recovered in each sample was normalized to milligrams of protein and reported as the mean and standard deviation obtained from triplicate transfections.
# LipofectAce™ (Gibco BRL, 1:2.5 w/w dimethyl diotadecylammonium bromide and dioleoyl phosphatidylethanolamine) was used to mediate gene transfection according to the manufacturer's instructions. The ratio of DNA to LepofectAce™ was optimized for HepG2 cells. An optimal DNA/LipofectAce™ ratio was achieved by dissolving 10 μg of DNA in 100 μl serum free media (SFM) followed by adding 60 μl of LipofectAce™ prepared in 140 μl of SFM. The LipfectAce™ DNA complex was then diluted with 1.7 ml of SFM and used to transfect HepG2 cells for 5 h followed by replacing the transfecting media with media supplemented with 10% FBS. The cells were incubated for a total of 24 h, harvested and analyzed for luciferase as described above.
# COS 7 cells = assay: Luciferase reporter gene expression in COS 7 cells, Example 5
# HepG2 cells [3] = assay: Nuclear targeted β-galactosidase (X-gal) count of transfected HepG2 cells; conditions: HepG2, 48 h, NTβGal plasmid
# Experimental: The number of cells transfected in vitro was examined using a plasmid encoding nuclear targeted β-galactosidase followed by X-gal (5-bromo-4-chloro-3-indolyl-β-galactopyranoside) staining. HepG2 and COS 7 cells were transfected for 5 h as described above with either AlkCWK18 DNA, peptide II DNA condensates, or plasmid DNA and then grown in fresh media for an additional 43 h. After removing media, cells were fixed for 5 min in phosphate-buffered saline (PBS, pH 7.3) containing 1.25 vol/vol % glutaraldehyde and then stained by incubation with 0.05 wt/v % X-gal, 1 mM magnesium chloride, 10 mM potassium ferricyanide, and 10 mM potassium ferrocyanide in PBS. After 4 h at 37° C., the X-gal solution was removed and the nuclear stained blue cells were counted with a light microscope under ten power magnification by averaging the number of transfectants from nine fields. Values were analyzed for significance by one-way analysis of variance.
Substance,"cell associated 125I-DNA, percent of dose (HepG2 cells [1])",chloroquine enhancement of gene expression relative to that of AlkCWK18 DNA condensates (HepG2 cells [2]),increase in gene expression over polylysine1007 or LipofectAce (HepG2 cells [2]; HepG2),"increase in luciferase gene expression relative to AlkCWK18 DNA condensates (HepG2 cells [2]; HepG2, 80 μM chloroquine, 24 h)",increase in luciferase gene expression relative to AlkCWK18 (COS 7 cells),more cells transduced (nuclear stained) vs. AlkCWK18 (HepG2 cells [3])
Alk-S-Cys-Trp-Lys18 (C(Carboxymethyl)WKKKKKKKKKKKKKKKKKK) [AlkCWK18],Approximately 14%,,,,,
Cys-Trp-Lys17-Cys (CWKKKKKKKKKKKKKKKKKC) [Peptide II],,approximately 5 fold,5 fold,60 fold,10 fold,approximately 9 fold
